In patent US10112941B2, “Tricyclic compounds as anticancer agents” (BRISTOL-MYERS SQUIBB COMPANY, priority 2013, dated 2018):

Each molecule was assayed against BRD4 (Homo sapiens, UniProt O60885) (assay: Time Resolved Fluorescence Resonance Energy Transfer (TR-FRET) binding assay, BRD4). Conditions: one of the FRET assays described; read-out: FRET BRD4 IC50.

For `Cc1nnn(C)c1-c1cnc2c3c(NS(C)(=O)=O)ccc(S(C)(=O)=O)c3n([C@H](c3ccccc3)C3CCOCC3)c2c1` [Example 216, N-[3-(dimethyl-1H-1,2,3-triazol-5-yl)-6-methanesulfonyl-5-[(S)-oxan-4-yl(phenyl)methyl]-5H-pyrido[3,2-b]indol-9-yl]methanesulfonamide], which IC50 is on record?
The IC50 was under 5 nM.

`Cc1noc(C)c1-c1cnc2c3ccc(C(C)(C)O)cc3n([C@H](CCC(F)(F)F)c3ccccc3Cl)c2c1` [Example 87] was tested. Which IC50 did it give?
The IC50 was under 1500 nM.

With `[2H]C([2H])([2H])c1nnn(C)c1-c1cnc2c3cc(F)c(C(C)(O)C4CC4)cc3n(C(c3cc(C)on3)C3CCOCC3)c2c1` (stereo not shown) [Example 329] as the molecule, how does the IC50 read?
The IC50 was under 25 nM.

How did the IC50 turn out when `Cc1noc(C)c1-c1cnc2c3ccc(C4(O)COC4)cc3n([C@H](c3ccccc3)C3CCOCC3)c2c1` [Example 244, 3-[3-(Dimethyl-1,2-oxazol-4-yl)-5-[(S)-oxan-4-yl(phenyl)methyl]-5H-pyrido[3,2-b]indol-7-yl]oxetan-3-ol] was run?
Its IC50 is under 5 nM.

For `Cc1nnn(C)c1-c1cnc2c3ccc(S(C)(=O)=O)cc3n([C@H](c3ccccc3F)C3CCOCC3)c2c1` [Example 264], which IC50 is on record?
The IC50 was under 5 nM.

`COc1cc2c3ncc(-c4c(C)nnn4C)cc3n([C@H](c3ccccc3)C3CCOCC3)c2cc1C(C)(C)O` [Example 354, 2-[3-(Dimethyl-1H-1,2,3-triazol-5-yl)-8-methoxy-5-[(S)-oxan-4-yl(phenyl)methyl]-5H-pyrido[3,2-b]indol-7-yl]propan-2-ol] was tested. Which IC50 did it give?
Its IC50 is under 5 nM.

For `Cc1nnn(C)c1-c1cnc2c3ccc(C(C)(C)O)cc3n(C(c3cccc(Cl)c3)C3CCOCC3)c2c1` (single isomer, unassigned) [Example 401], which IC50 is on record?
The IC50 was under 5 nM.

`Cc1nnn(C)c1-c1cnc2c3c(F)cc(C(C)(C)O)cc3n(C(c3cccc(F)c3F)C3CCOCC3)c2c1` (single isomer, unassigned) [Example 108, 2-{5-[(2,3-Difluorophenyl)(oxan-4-yl)methyl]-3-(dimethyl-1H-1,2,3-triazol-5-yl)-9-fluoro-5H-pyrido[3,2-b]indol-7-yl}propan-2-ol] was tested. Which IC50 did it give?
The IC50 was under 5 nM.

For `COc1cc(C(C)(C)O)cc2c1c1ncc(-c3c(C)nnn3C)cc1n2[C@H](c1ccccc1F)C1CCOCC1` [Example 274], which IC50 is on record?
The IC50 was under 5 nM.

For `[2H]C([2H])([2H])c1nnn(C)c1-c1cnc2c3ccc(C(C)(C)O)cc3n([C@H](c3ccccc3)C3CCOCC3)c2c1` [Example 262, 2-{3-[4-(^2H3)Methyl-1-methyl-1H-1,2,3-triazol-5-yl]-5-[(S)-oxan-4-yl(phenyl)methyl]-5H-pyrido[3,2-b]indol-7-yl}propan-2-ol], which IC50 is on record?
The IC50 was under 5 nM.

For `Cc1nnn(C)c1-c1cnc2c3cccc(S(C)(=O)=O)c3n([C@@H](CCC(F)(F)F)c3ccccc3)c2c1` [Example 377, 5-{6-Methanesulfonyl-5-[(1S)-4,4,4-trifluoro-1-phenylbutyl]-5H-pyrido[3,2-b]indol-3-yl}-1,4-dimethyl-1H-1,2,3-triazole], which IC50 is on record?
Its IC50 is under 5 nM.

`Cc1nnn(C)c1-c1cnc2c3ccc(C(C)(C)O)cc3n([C@@H](c3ccccc3F)C3CCOCC3)c2c1` [Example 93, 2-[3-(dimethyl-1H-1,2,3-triazol-5-yl)-5-[(R)-oxan-4-yl(2-fluorophenyl)(^2H)methyl]-5H-pyrido[3,2-b]indol-7-yl]propan-2-ol] was tested. Which IC50 did it give?
The IC50 was under 5 nM.

Which IC50 does the source give for `[2H]C([2H])([2H])n1nnc(OC)c1-c1cnc2c3ccc(C(C)(C)O)cc3n([C@H](c3ccccc3)C3CCOCC3)c2c1` [Example 381, 2-{3-[4-Methoxy-1-(^2H3)methyl-1H-1,2,3-triazol-5-yl]-5-[(S)-oxan-4-yl(phenyl)methyl]-5H-pyrido[3,2-b]indol-7-yl}propan-2-ol] here?
Its IC50 is under 5 nM.

Which IC50 does the source give for `COc1nnn(C)c1-c1cnc2c3ccc(C(C)(C)O)cc3n([C@H](c3ccccc3)C3CCOCC3)c2c1` [Example 379, 2-[3-(4-Methoxy-1-Methyl-1H-1,2,3-triazol-5-yl)-5-[(S)-oxan-4-yl(phenyl)methyl]-5H-pyrido[3,2-b]indol-7-yl]propan-2-ol] here?
Its IC50 is under 5 nM.

Which IC50 does the source give for `Cc1nnn(C)c1-c1cnc2c3cc(F)c(C(C)(C)O)cc3n(C(c3ccc(F)cc3)C3CCOCC3)c2c1` (single isomer, unassigned) [Example 78, 2-[3-(Dimethyl-1H-1,2,3-triazol-5-yl)-8-fluoro-5-[(4-fluorophenyl)(oxan-4-yl)methyl]-5H-pyrido[3,2-b]indol-7-yl]propan-2-ol] here?
The IC50 was under 5 nM.

With `[2H]C([2H])([2H])c1nnn(C)c1-c1cnc2c3ccc(C(C)(C)O)cc3n(C(c3ccncc3F)C3CCOCC3)c2c1` (single isomer, unassigned) [Example 310] as the molecule, how does the IC50 read?
The IC50 was under 5 nM.

For `Cc1noc(C)c1-c1cnc2c3ccc(C(C)(C)O)cc3n(C(c3c(F)cc(F)cc3F)C3CCOCC3)c2c1` (single isomer, unassigned) [Example 127, 2-[3-(Dimethyl-1,2-oxazol-4-yl)-5-[oxan-4-yl(2,4,6-trifluorophenyl)methyl]-5H-pyrido[3,2-b]indol-7-yl]propan-2-ol], which IC50 is on record?
Its IC50 is under 5 nM.

Which IC50 does the source give for `Cc1nnn(C)c1-c1cnc2c3c(F)cc(C(C)(C)O)cc3n(C(c3ccc(F)cc3F)C3CCOCC3)c2c1` (single isomer, unassigned) [Example 111, 2-{5-[(2,4-Difluorophenyl)(oxan-4-yl)methyl]-3-(dimethyl-1H-1,2,3-triazol-5-yl)-9-fluoro-5H-pyrido[3,2-b]indol-7-yl}propan-2-ol] here?
Its IC50 is under 5 nM.

For `[2H]C([2H])([2H])c1nnn(C)c1-c1cnc2c3c(OC)cc(C(C)(C)O)cc3n(C(c3ccncc3F)C3CCOCC3)c2c1` (stereo not shown) [Example 348, 2-{5-[(3-Fluoropyridin-4-yl)(oxan-4-yl)methyl]-9-methoxy-3-[4-(^2H3)methyl-1-methyl-1H-1,2,3-triazol-5-yl]-5H-pyrido[3,2-b]indol-7-yl}propan-2-ol], which IC50 is on record?
The IC50 was under 5 nM.

`Cc1ncn(C)c1-c1cnc2c3ccc(S(C)(=O)=O)cc3n([C@H](c3ccccc3)C3CCOCC3)c2c1` [Example 454, 5-{7-Methanesulfonyl-5-[(S)-oxan-4-yl(phenyl)methyl]-5H-pyrido[3,2-b]indol-3-yl}-1,4-dimethyl-1H-imidazole] was tested. Which IC50 did it give?
Its IC50 is under 25 nM.

Which IC50 does the source give for `Cc1nnn(C)c1-c1cnc2c3ccc(C(C)(C)O)cc3n([C@H](CCC(F)(F)F)c3ccccc3)c2c1` [Example 58] here?
The IC50 was under 5 nM.

Which IC50 does the source give for `COc1cc(C(C)(C)O)cc2c1c1ncc(-c3c(C)nnn3C)cc1n2[C@H](c1ccccc1)C1CCOCC1` [Example 260, 2-[3-(Dimethyl-1H-1,2,3-triazol-5-yl)-9-methoxy-5-[(S)-oxan-4-yl(phenyl)methyl]-5H-pyrido[3,2-b]indol-7-yl]propan-2-ol] here?
The IC50 was under 5 nM.

`Cc1nnn(C)c1-c1cnc2c3c(F)cc(C(C)(C)O)cc3n(C(c3cccc(F)c3F)C3CCOCC3)c2c1` (single isomer, unassigned) [Example 109, 2-{5-[(2,3-Difluorophenyl)(oxan-4-yl)methyl]-3-(dimethyl-1H-1,2,3-triazol-5-yl)-9-fluoro-5H-pyrido[3,2-b]indol-7-yl}propan-2-ol] was tested. Which IC50 did it give?
The IC50 was under 5 nM.

For `Cc1nnn(C)c1-c1cnc2c3ccc(C(C)(C)O)cc3n([C@H](c3ccccc3F)C3CCOCC3)c2c1` [Example 64], which IC50 is on record?
The IC50 was under 5 nM.

With `Cc1nnn(C)c1-c1cnc2c3ccc(C(C)(C)O)cc3n(C(c3ccc(F)c(F)c3)C3CCOCC3)c2c1` (single isomer, unassigned) [Example 97, 2-{5-[(3,4-Difluorophenyl)(oxan-4-yl)methyl]-3-(dimethyl-1H-1,2,3-triazol-5-yl)-5H-pyrido[3,2-b]indol-7-yl}propan-2-ol] as the molecule, how does the IC50 read?
The IC50 was under 5 nM.

With `COc1nnn(C)c1-c1cnc2c3ccc(S(C)(=O)=O)cc3n([C@H](c3ccccc3)C3CCOCC3)c2c1` [Example 391, 5-{7-Methanesulfonyl-5-[(S)-oxan-4-yl(phenyl)methyl]-5H-pyrido[3,2-b]indol-3-yl}-4-methoxy-1-methyl-1H-1,2,3-triazole] as the molecule, how does the IC50 read?
The IC50 was under 5 nM.

With `Cc1sc(=O)n(C)c1-c1cnc2c3ccc(C(C)(C)O)cc3n(C(c3ccccc3)C3CCOCC3)c2c1` (single isomer, unassigned) [Example 169, 4-[7-(2-Hydroxypropan-2-yl)-5-[oxan-4-yl(phenyl)methyl]-5H-pyrido[3,2-b]indol-3-yl]-3,5-dimethyl-2,3-dihydro-1,3-thiazol-2-one] as the molecule, how does the IC50 read?
The IC50 was under 5 nM.

For `Cc1noc(C)c1-c1cnc2c3ccc(C(C)(C)O)cc3n(CC3CCOCC3)c2c1` [Example 47], which IC50 is on record?
Its IC50 is under 25 nM.

For `Cc1noc(C)c1-c1cnc2c3ccc(C(C)(C)O)cc3n(C(CCC(F)(F)F)c3cnoc3)c2c1` (single isomer, unassigned) [Example 37, 2-[3-(Dimethyl-1,2-oxazol-4-yl)-5-[4,4,4-trifluoro-1-(1,2-oxazol-4-yl)butyl]-5H-pyrido[3,2-b]indol-7-yl]propan-2-ol], which IC50 is on record?
The IC50 was under 5 nM.

How did the IC50 turn out when `[2H]C([2H])([2H])c1nnn(C)c1-c1cnc2c3c(F)ccc(S(C)(=O)=O)c3n([C@H](c3ccccc3)C3CCOCC3)c2c1` [Example 221, 5-{9-Fluoro-6-methanesulfonyl-5-[(S)-oxan-4-yl(phenyl)methyl]-5H-pyrido[3,2-b]indol-3-yl}-4-(^2H3)methyl-1-methyl-1H-1,2,3-triazole] was run?
Its IC50 is under 5 nM.

How did the IC50 turn out when `[2H]C([2H])([2H])c1onc(C)c1-c1cnc2c3ccc(C(C)(C)O)cc3n(C([2H])(c3ccncc3F)C3CCOCC3)c2c1` (stereo not shown) [Example 344, 2-{5-[(3-Fluoropyridin-4-yl)(oxan-4-yl)(^2H)methyl]-3-[5-(^2H3)methyl-3-methyl-1,2-oxazol-4-yl]-5H-pyrido[3,2-b]indol-7-yl}propan-2-ol] was run?
Its IC50 is under 5 nM.

With `[2H]C([2H])([2H])c1nnn(C)c1-c1cnc2c3ccc(C(C)(C)O)cc3n(C(c3cc(Cl)ccn3)C3CCOCC3)c2c1` (single isomer, unassigned) [Example 457] as the molecule, how does the IC50 read?
The IC50 was under 5 nM.

Which IC50 does the source give for `[2H]C([2H])([2H])c1nnn(C)c1-c1cnc2c3c(OC)ccc(S(C)(=O)=O)c3n([C@H](c3ccccc3)C3CCOCC3)c2c1` [Example 183, 5-{6-Methanesulfonyl-9-methoxy-5-[(S)-oxan-4-yl(phenyl)methyl]-5H-pyrido[3,2-b]indol-3-yl}-4-(^2H3)methyl-1-methyl-1H-1,2,3-triazole] here?
The IC50 was under 5 nM.

With `Cc1nnn(C)c1-c1cnc2c3ccc(C(C)(C)O)cc3n(C(c3cc(Cl)ccn3)C3CCOCC3)c2c1` (single isomer, unassigned) [Example 297] as the molecule, how does the IC50 read?
The IC50 was under 5 nM.
